Assay results as given in US9561231B2 (AbbVie Inc., priority 2012, dated 2017).

Columns and labels:
[1] = target: T1, first (BD1: amino acids K57-E168) bromodomain of BRD4 (Homo sapiens, UniProt O60885); assay: TR-FRET bromodomain binding assay, BRD4 BD1; conditions: TR-FRET assay protocol (A-G, compound concentration range); Ki calculated from IC50, probe Kd and probe concentration; read-out: TR-FRET Binding Ki: BRD4 (BDI_K57-E168)
T1 construct: His-tagged first (BD1: amino acids K57-E168)
Experimental: (§1) A time-resolved fluorescence resonance energy transfer (TR-FRET) assay was used to determine the affinities of compounds of the Examples listed in Table 1 for each bromodomain of BRD4. His-tagged first (BD1: amino acids K57-E168) and second (BD2: amino acids E352-E168) bromodomains of BRD4 were expressed and purified. An Alexa647-labeled BET-inhibitor was used as the fluorescent probe in the assay.
(§2) Compound dilution series were prepared in DMSO via an approximately 3-fold serial dilution from one of the following:
(§3) or 5-fold serial dilution from one of the following:
(§4) Assay method A: 2.5 mM-800 nM
(§5) For Assay methods A, C, D, and F: Compounds were then diluted 6:100 in assay buffer (20 mM Sodium Phosphate, pH 6.0, 50 mM NaCl, 1 mM Ethylenediaminetetraacetic acid, 0.01% Triton X-100, 1 mM DL-Dithiothreitol) to yield 3× working solutions. […] of this solution were added to the assay plate to reach a final volume of 18 μL.
(§6) TR-FRET data were normalized to the means of 24 no-compound controls (“high”) and 8 controls containing 1 μM un-labeled probe (“low”). Percent inhibition was plotted as a function of compound concentration and the data were fit with the 4 parameter logistic equation to obtain IC50s. Inhibition constants (Ki) were calculated from the IC50s, probe Kd and probe concentration. Typical Z′ values were between 0.65 and 0.75.

[2] = target: T2, second (BD2: amino acids E352-E168) bromodomain of BRD4 (Homo sapiens, UniProt O60885); assay: TR-FRET bromodomain binding assay, BRD4 BD2; conditions: TR-FRET assay protocol (A-G, compound concentration range); Ki calculated from IC50, probe Kd and probe concentration; read-out: TR-FRET Binding Ki: BRD4 (BDII_E352-M457)
T2 construct: protocol
Experimental: as §1, §2, §3, §4, §5, §6

Row | SMILES | Ki [1] | Ki [2]
1 | COC(=O)c1ccccc1-c1cc(=O)n(C)nc1-c1ccccc1Oc1ccccc1 [Example 126, methyl 2-[1-methyl-6-oxo-3-(2-phenoxyphenyl)-1,6-dihydropyridazin-4-yl]benzoate] | 9.34 µM | > 22.2 µM
2 | CNC(=O)c1cccc(-c2cc(=O)n(C)nc2-c2ccccc2Oc2ccccc2)c1 [Example 128, N-methyl-3-[1-methyl-6-oxo-3-(2-phenoxyphenyl)-1,6-dihydropyridazin-4-yl]benzamide] | 1.64 µM | 0.376 µM
3 | CC(C)CCn1cc(-c2cc(=O)n(C)nc2-c2ccccc2Oc2ccccc2)cn1 [Example 129, 2-methyl-5-[1-(3-methylbutyl)-1H-pyrazol-4-yl]-6-(2-phenoxyphenyl)pyridazin-3(2H)-one] | 0.52 µM | 0.264 µM
4 | CC(C)Oc1ncccc1-c1cc(=O)n(C)nc1-c1ccccc1Oc1ccccc1 [Example 130, 2-methyl-6-(2-phenoxyphenyl)-5-[2-(propan-2-yloxy)pyridin-3-yl]pyridazin-3(2H)-one] | > 13 µM | 17.1 µM
5 | Cn1nc(-c2ccccc2Oc2ccccc2)c(-c2ccc3scnc3c2)cc1=O [Example 131, 5-(1,3-benzothiazol-5-yl)-2-methyl-6-(2-phenoxyphenyl)pyridazin-3(2H)-one] | 6.39 µM | 0.41 µM
6 | CC(=O)c1ccc(F)c(-c2cc(=O)n(C)nc2-c2ccccc2Oc2ccccc2)c1 [Example 132, 5-(5-acetyl-2-fluorophenyl)-2-methyl-6-(2-phenoxyphenyl)pyridazin-3(2H)-one] | > 13 µM | 8.05 µM
7 | Cn1nc(-c2ccccc2Oc2ccccc2)c(-c2ccc3c(c2)OCCO3)cc1=O [Example 133, 5-(2,3-dihydro-1,4-benzodioxin-6-yl)-2-methyl-6-(2-phenoxyphenyl)pyridazin-3(2H)-one] | 0.782 µM | 0.159 µM
8 | COC(C)c1cccc(-c2cc(=O)n(C)nc2-c2ccccc2Oc2ccccc2)c1 (centres unmarked) [Example 134, 5-[3-(1-methoxyethyl)phenyl]-2-methyl-6-(2-phenoxyphenyl)pyridazin-3(2H)-one] | 4.32 µM | 4.06 µM
9 | COC(C)c1ccc(-c2cc(=O)n(C)nc2-c2ccccc2Oc2ccccc2)cc1 (centres unmarked) [Example 135, 5-[4-(1-methoxyethyl)phenyl]-2-methyl-6-(2-phenoxyphenyl)pyridazin-3(2H)-one] | 0.604 µM | 0.411 µM
10 | CCOc1cccc(-c2cc(=O)n(C)nc2-c2ccccc2Oc2ccccc2)c1F [Example 136, 5-(3-ethoxy-2-fluorophenyl)-2-methyl-6-(2-phenoxyphenyl)pyridazin-3(2H)-one] | 4.33 µM | 6.7 µM
11 | Cn1nc(-c2ccccc2Oc2ccccc2)c(-c2ccc3nsnc3c2)cc1=O [Example 137, 5-(2,1,3-benzothiadiazol-5-yl)-2-methyl-6-(2-phenoxyphenyl)pyridazin-3(2H)-one] | 3.26 µM | 1.17 µM
12 | Cn1nc(-c2ccccc2Oc2ccccc2)c(-c2cncc(NCc3ccccc3)c2)cc1=O [Example 138, 5-[5-(benzylamino)pyridin-3-yl]-2-methyl-6-(2-phenoxyphenyl)pyridazin-3(2H)-one] | 7.43 µM | 3.18 µM
13 | Cn1nc(-c2ccccc2Oc2ccccc2)c(-c2cccc(N3CCOCC3)c2)cc1=O [Example 139, 2-methyl-5-[3-(morpholin-4-yl)phenyl]-6-(2-phenoxyphenyl)pyridazin-3(2H)-one] | > 1.52 µM | 0.879 µM
14 | Cn1nc(-c2ccccc2Oc2ccccc2)c(-c2ccc(OCC(F)(F)F)nc2)cc1=O [Example 140, 2-methyl-6-(2-phenoxyphenyl)-5-[6-(2,2,2-trifluoroethoxy)pyridin-3-yl]pyridazin-3(2H)-one] | > 13 µM | 8.21 µM
15 | Cn1nc(-c2ccccc2Oc2ccccc2)c(-c2cccc(CN3CCOCC3)c2)cc1=O [Example 141, 2-methyl-5-[3-(morpholin-4-ylmethyl)phenyl]-6-(2-phenoxyphenyl)pyridazin-3(2H)-one] | 0.526 µM | 0.297 µM
16 | Cn1nc(-c2ccccc2Oc2ccccc2)c(-c2cccc(C(=O)N3CCSCC3)c2)cc1=O [Example 142, 2-methyl-6-(2-phenoxyphenyl)-5-[3-(thiomorpholin-4-ylcarbonyl)phenyl]pyridazin-3(2H)-one] | 2.4 µM | 1.73 µM

Row | SMILES | Ki [1] | Ki [2]
17 | Cn1nc(-c2ccccc2Oc2ccccc2)c(-c2cncc(NC3CCCC3)c2)cc1=O [Example 143, 5-[5-(cyclopentylamino)pyridin-3-yl]-2-methyl-6-(2-phenoxyphenyl)pyridazin-3(2H)-one] | 3.2 µM | 5.47 µM
18 | Cn1nc(-c2ccccc2Oc2ccccc2)c(-c2cncc(C(=O)NC3CC3)c2)cc1=O [Example 144, N-cyclopropyl-5-[1-methyl-6-oxo-3-(2-phenoxyphenyl)-1,6-dihydropyridazin-4-yl]pyridine-3-carboxamide] | > 2.38 µM | > 3.37 µM
19 | Cn1nc(-c2ccccc2Oc2ccccc2)c(-c2cncc(C(=O)NC3CCCC3)c2)cc1=O [Example 145, N-cyclopentyl-5-[1-methyl-6-oxo-3-(2-phenoxyphenyl)-1,6-dihydropyridazin-4-yl]pyridine-3-carboxamide] | > 13 µM | 10.2 µM
20 | CCN(CC)S(=O)(=O)c1cccc(-c2cc(=O)n(C)nc2-c2ccccc2Oc2ccccc2)c1 [Example 146, N,N-diethyl-3-[1-methyl-6-oxo-3-(2-phenoxyphenyl)-1,6-dihydropyridazin-4-yl]benzenesulfonamide] | > 13 µM | 12.2 µM
21 | Cn1nc(-c2ccccc2Oc2ccccc2)c(-c2ccc(C(=O)N3CCOCC3)cc2)cc1=O [Example 147, 2-methyl-5-[4-(morpholin-4-ylcarbonyl)phenyl]-6-(2-phenoxyphenyl)pyridazin-3(2H)-one] | 0.26 µM | 0.168 µM
22 | CN(C(=O)c1cccc(-c2cc(=O)n(C)nc2-c2ccccc2Oc2ccccc2)c1)C1CCCCC1 [Example 148, N-cyclohexyl-N-methyl-3-[1-methyl-6-oxo-3-(2-phenoxyphenyl)-1,6-dihydropyridazin-4-yl]benzamide] | > 13 µM | 19.7 µM
23 | CN(C)CCCNC(=O)c1ccc(-c2cc(=O)n(C)nc2-c2ccccc2Oc2ccccc2)cc1 [Example 150, N-[3-(dimethylamino)propyl]-4-[1-methyl-6-oxo-3-(2-phenoxyphenyl)-1,6-dihydropyridazin-4-yl]benzamide] | 0.471 µM | 0.411 µM
24 | Cn1nc(-c2ccccc2Oc2ccccc2)c(-c2ccc(N3CCNCC3)nc2)cc1=O [Example 151, 2-methyl-6-(2-phenoxyphenyl)-5-[6-(piperazin-1-yl)pyridin-3-yl]pyridazin-3(2H)-one] | 0.4 µM | 0.258 µM
25 | CN(C)C(=O)c1cc(F)cc(-c2cc(=O)n(C)nc2-c2ccccc2Oc2ccccc2)c1 [Example 152, 3-fluoro-N,N-dimethyl-5-[1-methyl-6-oxo-3-(2-phenoxyphenyl)-1,6-dihydropyridazin-4-yl]benzamide] | 6.62 µM | 7.27 µM
26 | Cn1nc(-c2ccccc2Oc2ccccc2)c(-c2ccnc(N3CCOCC3)c2)cc1=O [Example 153, 2-methyl-5-[2-(morpholin-4-yl)pyridin-4-yl]-6-(2-phenoxyphenyl)pyridazin-3(2H)-one] | 5.96 µM | 3.09 µM
27 | CC1CCN(C(=O)c2cccc(-c3cc(=O)n(C)nc3-c3ccccc3Oc3ccccc3)c2)CC1 [Example 154, 2-methyl-5-{3-[(4-methylpiperidin-1-yl)carbonyl]phenyl}-6-(2-phenoxyphenyl)pyridazin-3(2H)-one] | 11.9 µM | 5.94 µM
28 | CN(C)C(=O)c1cc(-c2cc(=O)n(C)nc2-c2ccccc2Oc2ccccc2)ccc1F [Example 155, 2-fluoro-N,N-dimethyl-5-[1-methyl-6-oxo-3-(2-phenoxyphenyl)-1,6-dihydropyridazin-4-yl]benzamide] | 5.52 µM | 6.9 µM
29 | Cn1nc(-c2ccccc2Oc2ccccc2)c(-c2cccc(S(=O)(=O)N3CCCC3)c2)cc1=O [Example 156, 2-methyl-6-(2-phenoxyphenyl)-5-[3-(pyrrolidin-1-ylsulfonyl)phenyl]pyridazin-3(2H)-one] | > 13 µM | 13.1 µM
30 | Cn1nc(-c2ccccc2Oc2ccccc2)c(-c2cccc(C(=O)N3CCCCC3)c2)cc1=O [Example 157, 2-methyl-6-(2-phenoxyphenyl)-5-[3-(piperidin-1-ylcarbonyl)phenyl]pyridazin-3(2H)-one] | 5.51 µM | 4.75 µM
31 | CCN(CC)C(=O)c1ccc(-c2cc(=O)n(C)nc2-c2ccccc2Oc2ccccc2)cc1 [Example 158, N,N-diethyl-4-[1-methyl-6-oxo-3-(2-phenoxyphenyl)-1,6-dihydropyridazin-4-yl]benzamide] | 0.604 µM | 0.529 µM
